Experimental data published in PubChem BioAssay (NCI).
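Dose response: 5 concentrations. Exposure: 48 h. Format: 96-well plates. Endpoint: linear interpolation; highest concentration if not reached. GI50 is the concentration that inhibits growth by half. TGI: total growth inhibition.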

Assays:
Assay in all cases: NCI tumour cell line growth inhibition, 48 h
SNB-19 CNS = test system: SNB-19 CNS
UO-31 renal = test system: UO-31 renal
BT-549 breast = test system: BT-549 breast
T-47D breast = test system: T-47D breast
SF-539 CNS = test system: SF-539 CNS
RPMI-8226 leukemia = test system: RPMI-8226 leukemia
MDA-MB-231 breast = test system: MDA-MB-231 breast
OVCAR-3 ovarian = test system: OVCAR-3 ovarian
MDA-MB-435 = test system: MDA-MB-435
K-562 leukemia = test system: K-562 leukemia
HL-60(TB) leukemia = test system: HL-60(TB) leukemia
MCF7 breast = test system: MCF7 breast
NCI-H226 lung = test system: NCI-H226 lung
786-0 renal = test system: 786-0 renal
TK-10 renal = test system: TK-10 renal
PC-3 prostate = test system: PC-3 prostate
NCI/ADR-RES ovarian = test system: NCI/ADR-RES ovarian
MALME-3M melanoma = test system: MALME-3M melanoma
MOLT-4 leukemia = test system: MOLT-4 leukemia
LOX IMVI melanoma = test system: LOX IMVI melanoma
NCI-H522 lung = test system: NCI-H522 lung
OVCAR-5 ovarian = test system: OVCAR-5 ovarian
ACHN renal = test system: ACHN renal
SK-MEL-5 melanoma = test system: SK-MEL-5 melanoma
SR leukemia = test system: SR leukemia
SK-MEL-28 melanoma = test system: SK-MEL-28 melanoma
NCI-H23 lung = test system: NCI-H23 lung
HS 578T breast = test system: HS 578T breast
CAKI-1 renal = test system: CAKI-1 renal
M14 melanoma = test system: M14 melanoma
NCI-H460 lung = test system: NCI-H460 lung
HT29 colon = test system: HT29 colon
HCT-15 colon = test system: HCT-15 colon
COLO 205 colon = test system: COLO 205 colon
OVCAR-4 ovarian = test system: OVCAR-4 ovarian
OVCAR-8 ovarian = test system: OVCAR-8 ovarian
UACC-257 melanoma = test system: UACC-257 melanoma
HCT-116 colon = test system: HCT-116 colon
KM12 colon = test system: KM12 colon
U251 CNS = test system: U251 CNS
DU-145 prostate = test system: DU-145 prostate
HCC-2998 colon = test system: HCC-2998 colon
SN12C renal = test system: SN12C renal
SF-295 CNS = test system: SF-295 CNS
SK-OV-3 ovarian = test system: SK-OV-3 ovarian
IGROV1 ovarian = test system: IGROV1 ovarian
SF-268 CNS = test system: SF-268 CNS
SW-620 colon = test system: SW-620 colon
HOP-62 NSCLC = test system: HOP-62 NSCLC
SNB-75 CNS = test system: SNB-75 CNS
HOP-92 NSCLC = test system: HOP-92 NSCLC
UACC-62 melanoma = test system: UACC-62 melanoma
RXF 393 renal = test system: RXF 393 renal
A498 renal = test system: A498 renal
SK-MEL-2 melanoma = test system: SK-MEL-2 melanoma
CCRF-CEM leukemia = test system: CCRF-CEM leukemia
A549 NSCLC = test system: A549 NSCLC
EKVX NSCLC = test system: EKVX NSCLC

## COC(=O)[C@@H]1CCCN1C(=O)[C@@H]1CCCN1C(=O)[C@@H](Cc1c[nH]c2ccccc12)NC(=S)Nc1cc(C(F)(F)F)cc(C(F)(F)F)c1
SNB-19 CNS
  GI50: 16.2 µM
  TGI: > 100 µM
UO-31 renal
  GI50: 5.44 µM
  TGI: > 100 µM
BT-549 breast
  GI50: 4.75 µM
  TGI: 28.6 µM
T-47D breast
  GI50: 2.91 µM
  TGI: 9.5 µM
SF-539 CNS
  GI50: 7.72 µM
  TGI: 67.4 µM
RPMI-8226 leukemia
  GI50: 3.34 µM
  TGI: > 100 µM
MDA-MB-231 breast
  GI50: 3.01 µM
  TGI: 10.8 µM
OVCAR-3 ovarian
  GI50: 3.8 µM
  TGI: 52.2 µM
MDA-MB-435
  GI50: 2.44 µM
  TGI: 6.8 µM
K-562 leukemia
  GI50: 3.98 µM
  TGI: > 100 µM
HL-60(TB) leukemia
  GI50: 4.26 µM
  TGI: > 100 µM
MCF7 breast
  GI50: 2.61 µM
  TGI: > 100 µM
NCI-H226 lung
  GI50: 7.74 µM
  TGI: > 100 µM
786-0 renal
  GI50: 5.95 µM
  TGI: 20.1 µM
TK-10 renal
  GI50: 10.9 µM
  TGI: 87.8 µM
PC-3 prostate
  GI50: 2.95 µM
  TGI: 24.9 µM
NCI/ADR-RES ovarian
  GI50: > 100 µM
  TGI: > 100 µM
MALME-3M melanoma
  GI50: 5.17 µM
  TGI: 24.7 µM
MOLT-4 leukemia
  GI50: 3.16 µM
  TGI: > 100 µM
LOX IMVI melanoma
  GI50: 1.89 µM
  TGI: 4.38 µM
NCI-H522 lung
  GI50: 3.98 µM
  TGI: 26.5 µM
OVCAR-5 ovarian
  GI50: 15 µM
  TGI: 73 µM
ACHN renal
  GI50: 4.28 µM
  TGI: > 100 µM
SK-MEL-5 melanoma
  GI50: 2.13 µM
  TGI: 5.52 µM
SR leukemia
  GI50: 2.39 µM
  TGI: 6.44 µM
SK-MEL-28 melanoma
  GI50: 1.95 µM
  TGI: 4.54 µM
NCI-H23 lung
  GI50: 6.35 µM
  TGI: > 100 µM
HS 578T breast
  GI50: 7.81 µM
  TGI: > 100 µM
CAKI-1 renal
  GI50: 16.9 µM
  TGI: > 100 µM
M14 melanoma
  GI50: 4.68 µM
  TGI: 21.1 µM
NCI-H460 lung
  GI50: 4.77 µM
  TGI: > 100 µM
HT29 colon
  GI50: 3.68 µM
  TGI: 23.3 µM
HCT-15 colon
  GI50: 4.87 µM
  TGI: > 100 µM
COLO 205 colon
  GI50: 2.41 µM
  TGI: 5.5 µM
OVCAR-4 ovarian
  GI50: 4.32 µM
  TGI: > 100 µM
OVCAR-8 ovarian
  GI50: 5.83 µM
  TGI: > 100 µM
UACC-257 melanoma
  GI50: 4.06 µM
  TGI: 35.3 µM
HCT-116 colon
  GI50: 4.03 µM
  TGI: > 100 µM
KM12 colon
  GI50: 5.45 µM
  TGI: > 100 µM
U251 CNS
  GI50: 4.31 µM
  TGI: 95.3 µM
DU-145 prostate
  GI50: 14.6 µM
  TGI: > 100 µM
HCC-2998 colon
  GI50: 2.9 µM
  TGI: 9.05 µM
SN12C renal
  GI50: 6.81 µM
  TGI: > 100 µM
SF-295 CNS
  GI50: 6.48 µM
  TGI: > 100 µM
SK-OV-3 ovarian
  GI50: 47.2 µM
  TGI: > 100 µM
IGROV1 ovarian
  GI50: 3.91 µM
  TGI: 48.7 µM
SF-268 CNS
  GI50: 6.44 µM
  TGI: > 100 µM
SW-620 colon
  GI50: 4.34 µM
  TGI: > 100 µM
HOP-62 NSCLC
  GI50: 8.35 µM
  TGI: > 100 µM
SNB-75 CNS
  GI50: 1.91 µM
  TGI: > 100 µM
HOP-92 NSCLC
  GI50: 1.46 µM
  TGI: 5.26 µM
UACC-62 melanoma
  GI50: 3.68 µM
  TGI: 20.4 µM
RXF 393 renal
  GI50: 2.14 µM
  TGI: 5.89 µM
A498 renal
  GI50: 11.1 µM
  TGI: 98.2 µM
SK-MEL-2 melanoma
  GI50: 2.49 µM
  TGI: 5.11 µM
CCRF-CEM leukemia
  GI50: 3.39 µM
  TGI: > 100 µM
A549 NSCLC
  GI50: 5.31 µM
  TGI: > 100 µM

## CCN1C(=O)N(CC)C2C1NN=c1s/c(=C3\C(=O)N(C)c4ccccc43)c(=O)n12 (stereo not given)
SNB-19 CNS
  GI50: 2.89 µM
  TGI: > 100 µM
UO-31 renal
  GI50: 1.28 µM
  TGI: > 100 µM
BT-549 breast
  GI50: 1.39 µM
  TGI: 37.9 µM
T-47D breast
  GI50: 0.632 µM
  TGI: > 100 µM
SF-539 CNS
  GI50: 0.545 µM
  TGI: 3.77 µM
RPMI-8226 leukemia
  GI50: 0.89 µM
  TGI: 12.6 µM
MDA-MB-231 breast
  GI50: 1.99 µM
  TGI: 34.6 µM
OVCAR-3 ovarian
  GI50: 0.382 µM
  TGI: 8.18 µM
MDA-MB-435
  GI50: 0.221 µM
  TGI: 0.663 µM
K-562 leukemia
  GI50: 0.352 µM
  TGI: > 100 µM
HL-60(TB) leukemia
  GI50: 0.434 µM
  TGI: 2.05 µM
MCF7 breast
  GI50: 0.373 µM
  TGI: 31.2 µM
NCI-H226 lung
  GI50: 1.45 µM
  TGI: > 100 µM
EKVX NSCLC
  GI50: 3.25 µM
  TGI: > 100 µM
786-0 renal
  GI50: 1.94 µM
  TGI: > 100 µM
TK-10 renal
  GI50: 11.2 µM
  TGI: > 74.3 µM
PC-3 prostate
  GI50: 1.14 µM
  TGI: > 100 µM
NCI/ADR-RES ovarian
  GI50: 0.729 µM
  TGI: 38.7 µM
MALME-3M melanoma
  GI50: 0.993 µM
  TGI: > 100 µM
MOLT-4 leukemia
  GI50: 1.7 µM
  TGI: > 100 µM
LOX IMVI melanoma
  GI50: 0.958 µM
  TGI: > 100 µM
NCI-H522 lung
  GI50: 0.609 µM
  TGI: 33 µM
OVCAR-5 ovarian
  GI50: 3.3 µM
  TGI: > 100 µM
ACHN renal
  GI50: 0.752 µM
  TGI: > 100 µM
SK-MEL-5 melanoma
  GI50: 0.837 µM
  TGI: > 89.2 µM
SR leukemia
  GI50: 0.382 µM
  TGI: > 100 µM
SK-MEL-28 melanoma
  GI50: 3.09 µM
  TGI: > 100 µM
NCI-H23 lung
  GI50: 3.24 µM
  TGI: > 88.1 µM
HS 578T breast
  GI50: 0.542 µM
  TGI: > 39.9 µM
CAKI-1 renal
  GI50: 0.448 µM
  TGI: 97.4 µM
M14 melanoma
  GI50: 0.803 µM
  TGI: > 58.3 µM
NCI-H460 lung
  GI50: 1.29 µM
  TGI: > 100 µM
HT29 colon
  GI50: 0.562 µM
  TGI: > 100 µM
HCT-15 colon
  GI50: 0.536 µM
  TGI: > 100 µM
COLO 205 colon
  GI50: 1.08 µM
  TGI: 55.1 µM
OVCAR-4 ovarian
  GI50: 8.51 µM
  TGI: > 100 µM
OVCAR-8 ovarian
  GI50: 2.82 µM
  TGI: > 100 µM
UACC-257 melanoma
  GI50: 4.2 µM
  TGI: > 100 µM
HCT-116 colon
  GI50: 1.1 µM
  TGI: > 43.6 µM
KM12 colon
  GI50: 0.647 µM
  TGI: > 100 µM
U251 CNS
  GI50: 1.97 µM
  TGI: > 68.9 µM
DU-145 prostate
  GI50: 2.16 µM
  TGI: > 100 µM
HCC-2998 colon
  GI50: 1.8 µM
  TGI: > 100 µM
SN12C renal
  GI50: 2.89 µM
  TGI: > 100 µM
SF-295 CNS
  GI50: 0.999 µM
  TGI: > 28.8 µM
SK-OV-3 ovarian
  GI50: 6.03 µM
  TGI: > 100 µM
IGROV1 ovarian
  GI50: 0.891 µM
  TGI: 43.7 µM
SF-268 CNS
  GI50: 10.8 µM
  TGI: > 100 µM
SW-620 colon
  GI50: 0.58 µM
  TGI: > 100 µM
HOP-62 NSCLC
  GI50: 2.25 µM
  TGI: > 100 µM
SNB-75 CNS
  GI50: 0.397 µM
  TGI: 20.3 µM
HOP-92 NSCLC
  GI50: 0.685 µM
  TGI: > 100 µM
UACC-62 melanoma
  GI50: 0.431 µM
  TGI: > 100 µM
RXF 393 renal
  GI50: 0.587 µM
  TGI: 4.81 µM
A498 renal
  GI50: 0.23 µM
  TGI: 0.908 µM
SK-MEL-2 melanoma
  GI50: 3.06 µM
  TGI: > 100 µM
CCRF-CEM leukemia
  GI50: 1.37 µM
  TGI: > 100 µM
A549 NSCLC
  GI50: 1.83 µM
  TGI: > 100 µM
